Activity calls are given as the source filed them.
Columns and labels:
[1] = target: Lysosomal acid glucosylceramidase (Homo sapiens, UniProt P04062); assay: Dose response cell-based high throughput screening assay to identify enhancers of beta-glucosidase activity. [Related pubchem assays: 784 ]; assay type: functional
[2] = target: Polyadenylate-binding protein 1 (Homo sapiens, UniProt P11940); assay: blockers of PABP interaction with poly(A) – biochemical, fluorescence polarization, […] (AID 2014)
[3] = target: Eukaryotic translation initiation factor 4H (Homo sapiens, UniProt Q15056); assay: eIF4H binding inhibition – biochemical, uHTS, fluorescence polarization, translation initiation inhibitor project, primary screen (AID 2012)
[4] = target: Procathepsin L (Homo sapiens, UniProt P07711)
[5] = target: Aspartyl aminopeptidase (Plasmodium falciparum 3D7, UniProt Q8I2J3)
[6] = target: T1, Voltage-gated N-type calcium channel alpha-1B subunit/Amyloid beta A4 precursor protein-binding family A member 1 (Homo sapiens, UniProt Q00975+Q02410); assay: disruptors of Mint-PDZ/N-type channel peptide interaction – biochemical, HTRF, set 2, SAR follow-up (AID 434980); assay type: functional
[7] = target: T1, Voltage-gated N-type calcium channel alpha-1B subunit/Amyloid beta A4 precursor protein-binding family A member 1; assay: disruptors of Mint-PDZ/N-type channel peptide interaction – biochemical, HTRF, SAR follow-up (AID 2489); assay type: functional
[8] = target: T2, Rac GTPase-activating protein 1 (Homo sapiens, UniProt Q9H0H5); assay: blockers of MgcRacGAP-driven Rac1 GTP hydrolysis – biochemical, ADP Hunter fluorescence, primary and confirmatory, confirmation (AID 624330); assay type: functional
T2 sequence (Q9H0H5 whole entry): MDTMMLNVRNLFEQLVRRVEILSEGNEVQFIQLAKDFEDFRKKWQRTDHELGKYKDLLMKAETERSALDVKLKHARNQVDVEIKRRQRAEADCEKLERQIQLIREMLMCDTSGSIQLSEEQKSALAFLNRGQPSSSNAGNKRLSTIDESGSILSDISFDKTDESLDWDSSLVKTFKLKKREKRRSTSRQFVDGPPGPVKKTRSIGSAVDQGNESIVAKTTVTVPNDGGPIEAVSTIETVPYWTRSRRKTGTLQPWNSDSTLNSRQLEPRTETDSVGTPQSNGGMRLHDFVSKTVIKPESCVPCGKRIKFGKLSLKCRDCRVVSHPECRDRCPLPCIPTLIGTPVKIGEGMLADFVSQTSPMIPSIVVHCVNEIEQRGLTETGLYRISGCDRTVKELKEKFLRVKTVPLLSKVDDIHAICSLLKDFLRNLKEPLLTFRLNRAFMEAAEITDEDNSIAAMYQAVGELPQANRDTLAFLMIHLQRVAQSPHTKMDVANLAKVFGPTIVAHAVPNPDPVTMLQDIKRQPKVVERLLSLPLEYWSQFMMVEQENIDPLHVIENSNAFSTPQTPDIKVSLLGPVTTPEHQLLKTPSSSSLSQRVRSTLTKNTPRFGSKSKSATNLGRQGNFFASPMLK

[9] = target: Glucose-6-phosphate 1-dehydrogenase (Homo sapiens, UniProt P11413); assay: inhibition of Homo sapiens G6PD, dose series – biochemical, fluorescence, selectivity assay for P. falciparum G6PD inhibitor project, dose response (AID 504792); assay type: functional
[10] = target: Cystic fibrosis transmembrane conductance regulator/Golgi-associated PDZ and coiled-coil motif-containing protein (Homo sapiens, UniProt P13569+Q9HD26); assay: potency against CAL PDZ-peptide interaction – biochemical, fluorescence polarization, Cerulean-tagged CAL PDZ, cherry-picks, dose response (AID 504773)
[11] = target: Nonstructural protein 1 (Influenza A virus, UniProt Q194T2); assay type: functional, Influenza A virus (A/California/07/2009(H1N1))
[12] = target: Mitochondrial peptide methionine sulfoxide reductase (Bos taurus, UniProt P54149); assay: Absorbance-based biochemical high throughput dose response assay for activators of Methionine sulfoxide reductase A (MsrA).; assay type: functional
[13] = viability loss in HeLa cells – cytotoxicity control for MgcRacGAP inhibitor project, dose response (AID 624300); assay type: functional
[14] = target: T3, Kappa-type opioid receptor (Homo sapiens, UniProt P41145); assay: SAR analysis of small molecule agonists of the kappa opioid receptor via a luminescent beta-arrestin assay - Set 2. [Related pubchem assays (depositor defined):AID1777, AID1785, AID1786, AID1966, AID2133, AID2136, AID2284, AID449737]; assay type: functional
[15] = target: Delta-type opioid receptor (Homo sapiens, UniProt P41143); assay: SAR Analysis of Antagonists of the DOR Receptor using an Image-Based Assay - Set 2. [Related pubchem assays (depositor defined):AID1777, AID1785, AID1786, AID1966, AID2133, AID2136, AID2284, AID2285, AID2357]; assay type: functional
[16] = target: T3, Kappa-type opioid receptor; assay: SAR analysis of Antagonists of the Kappa Opioid Receptor (KOR) using an Image-Based Assay - Set 2. [Related pubchem assays (depositor defined):AID1777, AID1785, AID1786, AID1966, AID2133, AID2136, AID2284, AID2285, AID2348]; assay type: functional
[17] = target: T4, Small ubiquitin-related modifier 1 (Homo sapiens, UniProt P63165); assay: SUMO1 protein interaction blockers, potency – biochemical, fluorescence polarization, uHTS hits, dose response (AID 624382); assay type: functional; details: read-out: IC50_Mean
[18] = Luminescence Cell Based Dose Confirmation HTS to Identify Activators of 5'UTR Stem-Loop Driven Alpha-Synuclein mRNA Translation in H4 Neuroglioblastoma Cells. [Related pubchem assays (depositor defined):AID1813, AID1829]; assay type: functional; details: Homo sapiens
[19] = target: T4, Small ubiquitin-related modifier 1; assay: SUMO1 protein-protein binding blockers, potency – biochemical, FRET, dose response (AID 624383); assay type: functional; details: read-out: IC50_Mean

T1 sequence (Q00975 whole entry): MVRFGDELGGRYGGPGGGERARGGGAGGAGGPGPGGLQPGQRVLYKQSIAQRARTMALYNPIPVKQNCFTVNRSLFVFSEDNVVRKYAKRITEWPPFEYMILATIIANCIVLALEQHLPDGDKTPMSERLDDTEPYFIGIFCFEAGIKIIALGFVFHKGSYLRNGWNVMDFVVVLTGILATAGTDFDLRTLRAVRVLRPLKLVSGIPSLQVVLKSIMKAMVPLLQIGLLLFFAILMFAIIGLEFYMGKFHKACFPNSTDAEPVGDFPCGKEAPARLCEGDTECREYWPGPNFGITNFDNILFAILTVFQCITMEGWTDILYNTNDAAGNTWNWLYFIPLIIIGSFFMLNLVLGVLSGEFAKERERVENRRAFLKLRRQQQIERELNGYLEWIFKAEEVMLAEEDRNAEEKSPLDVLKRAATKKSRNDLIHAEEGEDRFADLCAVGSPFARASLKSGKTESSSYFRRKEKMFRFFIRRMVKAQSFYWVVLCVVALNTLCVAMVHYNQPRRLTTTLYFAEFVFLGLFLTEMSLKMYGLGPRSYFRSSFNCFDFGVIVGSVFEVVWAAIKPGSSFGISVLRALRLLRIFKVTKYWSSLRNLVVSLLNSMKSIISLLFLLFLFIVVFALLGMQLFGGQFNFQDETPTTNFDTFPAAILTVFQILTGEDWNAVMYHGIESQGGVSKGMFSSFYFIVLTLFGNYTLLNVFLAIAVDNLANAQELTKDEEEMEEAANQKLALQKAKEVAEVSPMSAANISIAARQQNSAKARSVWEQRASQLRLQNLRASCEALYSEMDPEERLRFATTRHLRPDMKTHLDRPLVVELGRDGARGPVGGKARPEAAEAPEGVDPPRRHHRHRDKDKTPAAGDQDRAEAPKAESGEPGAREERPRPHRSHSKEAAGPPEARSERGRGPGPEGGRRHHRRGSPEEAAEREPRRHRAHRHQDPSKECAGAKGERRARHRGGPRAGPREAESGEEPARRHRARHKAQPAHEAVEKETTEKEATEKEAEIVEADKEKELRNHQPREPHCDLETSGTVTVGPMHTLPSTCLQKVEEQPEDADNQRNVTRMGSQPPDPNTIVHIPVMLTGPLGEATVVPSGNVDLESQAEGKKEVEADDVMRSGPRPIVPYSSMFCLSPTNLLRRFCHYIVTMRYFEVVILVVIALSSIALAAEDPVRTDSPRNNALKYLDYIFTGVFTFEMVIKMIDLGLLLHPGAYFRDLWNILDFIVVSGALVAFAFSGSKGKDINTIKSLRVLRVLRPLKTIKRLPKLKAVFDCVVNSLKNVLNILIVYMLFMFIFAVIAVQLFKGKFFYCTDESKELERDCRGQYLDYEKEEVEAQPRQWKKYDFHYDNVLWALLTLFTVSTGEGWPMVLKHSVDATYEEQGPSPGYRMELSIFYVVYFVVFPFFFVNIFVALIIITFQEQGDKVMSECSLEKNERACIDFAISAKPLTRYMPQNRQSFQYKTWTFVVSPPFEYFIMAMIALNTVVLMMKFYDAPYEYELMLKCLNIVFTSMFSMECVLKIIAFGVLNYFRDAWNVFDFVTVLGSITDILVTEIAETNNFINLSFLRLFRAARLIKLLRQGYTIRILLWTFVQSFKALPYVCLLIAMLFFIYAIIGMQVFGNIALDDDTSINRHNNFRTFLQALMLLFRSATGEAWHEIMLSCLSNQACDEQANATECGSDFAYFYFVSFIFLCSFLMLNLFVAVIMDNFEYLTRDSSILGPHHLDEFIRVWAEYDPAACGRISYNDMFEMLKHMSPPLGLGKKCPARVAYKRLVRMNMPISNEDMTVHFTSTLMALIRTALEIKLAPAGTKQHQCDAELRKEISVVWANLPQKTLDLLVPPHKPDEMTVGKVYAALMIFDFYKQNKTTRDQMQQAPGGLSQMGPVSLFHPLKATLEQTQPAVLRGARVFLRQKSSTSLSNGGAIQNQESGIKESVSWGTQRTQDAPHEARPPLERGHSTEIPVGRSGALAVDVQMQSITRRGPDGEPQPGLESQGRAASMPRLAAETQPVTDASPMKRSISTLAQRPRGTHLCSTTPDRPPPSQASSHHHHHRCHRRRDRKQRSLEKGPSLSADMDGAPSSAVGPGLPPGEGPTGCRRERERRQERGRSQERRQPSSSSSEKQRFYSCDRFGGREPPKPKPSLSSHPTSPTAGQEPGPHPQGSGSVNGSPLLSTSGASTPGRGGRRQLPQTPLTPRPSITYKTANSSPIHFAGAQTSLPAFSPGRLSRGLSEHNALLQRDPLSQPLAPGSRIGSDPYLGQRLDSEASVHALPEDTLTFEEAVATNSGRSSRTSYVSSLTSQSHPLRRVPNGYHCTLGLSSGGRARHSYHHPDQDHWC
T1 sequence (Q02410 whole entry): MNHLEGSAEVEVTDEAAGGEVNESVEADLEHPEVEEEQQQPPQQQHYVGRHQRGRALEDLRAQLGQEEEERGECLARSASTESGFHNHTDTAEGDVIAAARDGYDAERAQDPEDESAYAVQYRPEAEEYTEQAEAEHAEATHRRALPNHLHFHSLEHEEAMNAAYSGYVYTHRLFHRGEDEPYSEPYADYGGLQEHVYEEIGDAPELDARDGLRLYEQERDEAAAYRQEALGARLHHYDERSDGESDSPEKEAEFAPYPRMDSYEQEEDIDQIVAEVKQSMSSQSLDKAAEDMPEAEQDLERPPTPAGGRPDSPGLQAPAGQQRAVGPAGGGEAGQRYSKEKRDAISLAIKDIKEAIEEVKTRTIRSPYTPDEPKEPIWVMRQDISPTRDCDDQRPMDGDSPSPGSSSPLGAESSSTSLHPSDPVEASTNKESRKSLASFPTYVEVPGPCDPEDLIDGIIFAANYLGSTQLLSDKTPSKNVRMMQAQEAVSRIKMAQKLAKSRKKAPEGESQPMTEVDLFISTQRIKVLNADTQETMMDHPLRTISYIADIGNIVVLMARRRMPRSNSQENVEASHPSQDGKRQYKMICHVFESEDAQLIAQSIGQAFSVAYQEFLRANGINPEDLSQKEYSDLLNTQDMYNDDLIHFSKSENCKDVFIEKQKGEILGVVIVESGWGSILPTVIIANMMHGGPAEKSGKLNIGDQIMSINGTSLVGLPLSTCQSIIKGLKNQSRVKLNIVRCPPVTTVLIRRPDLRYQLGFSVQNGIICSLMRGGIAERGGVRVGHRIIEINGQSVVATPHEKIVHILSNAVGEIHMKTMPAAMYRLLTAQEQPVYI
T4 sequence (P63165 whole entry): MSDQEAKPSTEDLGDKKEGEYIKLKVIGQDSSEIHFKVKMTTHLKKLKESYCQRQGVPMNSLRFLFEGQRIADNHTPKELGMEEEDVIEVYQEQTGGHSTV
T3 sequence (P41145 whole entry): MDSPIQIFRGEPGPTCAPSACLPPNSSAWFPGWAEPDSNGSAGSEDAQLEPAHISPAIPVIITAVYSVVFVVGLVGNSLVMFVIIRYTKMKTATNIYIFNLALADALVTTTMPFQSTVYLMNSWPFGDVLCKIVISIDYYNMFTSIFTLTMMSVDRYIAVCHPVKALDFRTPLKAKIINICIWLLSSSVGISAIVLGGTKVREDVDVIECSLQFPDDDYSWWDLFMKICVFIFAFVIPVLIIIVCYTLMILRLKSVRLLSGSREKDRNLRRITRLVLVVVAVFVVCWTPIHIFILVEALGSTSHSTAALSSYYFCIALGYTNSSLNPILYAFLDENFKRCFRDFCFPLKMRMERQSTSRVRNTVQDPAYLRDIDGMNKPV
Chain of Mitochondrial peptide methionine sulfoxide reductase (P54149 whole entry): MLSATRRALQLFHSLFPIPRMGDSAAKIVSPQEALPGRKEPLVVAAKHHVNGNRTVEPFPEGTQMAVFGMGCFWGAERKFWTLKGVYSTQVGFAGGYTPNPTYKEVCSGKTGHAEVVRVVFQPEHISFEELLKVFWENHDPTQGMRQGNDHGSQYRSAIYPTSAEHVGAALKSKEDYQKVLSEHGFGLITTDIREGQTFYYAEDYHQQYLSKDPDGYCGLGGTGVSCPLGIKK
Chain of Polyadenylate-binding protein 1 (P11940 whole entry): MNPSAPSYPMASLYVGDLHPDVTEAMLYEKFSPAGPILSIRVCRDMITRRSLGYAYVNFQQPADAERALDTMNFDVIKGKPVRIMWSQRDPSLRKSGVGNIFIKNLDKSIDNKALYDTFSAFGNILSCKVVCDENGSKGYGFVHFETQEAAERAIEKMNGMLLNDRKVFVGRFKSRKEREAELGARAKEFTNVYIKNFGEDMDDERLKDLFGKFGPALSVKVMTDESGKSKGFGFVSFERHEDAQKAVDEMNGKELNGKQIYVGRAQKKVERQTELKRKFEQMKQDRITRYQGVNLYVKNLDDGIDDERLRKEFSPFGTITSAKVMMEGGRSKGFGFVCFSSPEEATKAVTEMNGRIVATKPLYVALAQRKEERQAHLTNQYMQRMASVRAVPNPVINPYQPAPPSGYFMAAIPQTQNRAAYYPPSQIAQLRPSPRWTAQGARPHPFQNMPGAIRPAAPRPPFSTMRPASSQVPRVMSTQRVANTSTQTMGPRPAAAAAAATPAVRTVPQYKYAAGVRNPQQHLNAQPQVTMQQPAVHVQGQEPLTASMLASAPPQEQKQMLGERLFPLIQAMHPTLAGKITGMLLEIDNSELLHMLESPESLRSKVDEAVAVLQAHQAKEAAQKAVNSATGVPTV
Chain of Nonstructural protein 1 (Q194T2 whole entry): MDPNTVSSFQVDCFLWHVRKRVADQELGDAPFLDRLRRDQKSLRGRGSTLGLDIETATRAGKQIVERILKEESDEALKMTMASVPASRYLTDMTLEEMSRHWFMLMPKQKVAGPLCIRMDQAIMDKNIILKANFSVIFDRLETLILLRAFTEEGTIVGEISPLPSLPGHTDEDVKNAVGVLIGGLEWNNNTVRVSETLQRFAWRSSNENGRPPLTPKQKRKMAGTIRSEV

Q: With CCOC(=O)C1(Cc2ccc(O)cc2)NC(c2ccccc2F)C2C(=O)N(C)C(=O)C21 (centres undefined) as the molecule, how does the EC50 [1] read?
A: The EC50 was > 50 µM (not active).

Q: Which IC50 [2] does the source give for COC(=O)c1c(NC(=O)/C=C/c2ccco2)sc2c1CCC2 here?
A: The IC50 was > 100 µM (inactive).

Q: What about the IC50 [3] of the same molecule?
A: Its IC50 is 50.4 µM (active).

Q: With COC(=O)CN(n1cnnc1)S(=O)(=O)c1ccccc1 as the molecule, how does the IC50 [4] read?
A: Its IC50 is > 59.6 µM (not active).

Q: What about the IC50 [5] of the same molecule?
A: Its IC50 is 0.497 µM (active).

Q: Which IC50 [6] does the source give for COc1ccccc1CCNC(=O)c1cc(-c2ccco2)nc2ccccc12 here?
A: Its IC50 is 25.8 µM (active).

Q: And the IC50 [7]?
A: Its IC50 is > 56.8 µM (inactive).

Q: For CN(C)c1ccc(C=c2c3cc(O)ccc3n3c2cc(-c2ccccc2)[n+]3C)cc1, which IC50 [8] is on record?
A: Its IC50 is 20.1 µM (active).

Q: What about the IC50 [9] of the same molecule?
A: The IC50 was > 80 µM (inactive).

Q: What about the AC50 [10] of the same molecule?
A: Its AC50 is 44.6 µM (active).

Q: What about the IC50 [11] of the same molecule?
A: Its IC50 is 3.76 µM (active).

Q: What about the EC50 [12] of the same molecule?
A: Its EC50 is > 104 µM (inactive).

Q: What about the CC50 [13] of the same molecule?
A: The CC50 was 50.7 µM (active).

Q: Which EC50 [14] does the source give for CC[C@@](C)(C(=O)NC1CCCCC1)N(Cc1ccco1)C(=O)c1ccccn1 here?
A: The EC50 was 0.128 µM (active).

Q: What about the IC50 [15] of the same molecule?
A: Its IC50 is > 32 µM (inactive).

Q: And the IC50 [16]?
A: Its IC50 is > 32 µM (inactive).

Q: Which IC50 [17] does the source give for Fc1ccc(Nc2nnc(-c3ccncc3)s2)cc1Cl here?
A: Its IC50 is > 66.6 µM (inactive).

Q: And the EC50 [18]?
A: Its EC50 is 12 µM (active).

Q: What about the IC50 [19] of the same molecule?
A: The IC50 was 100 µM (inactive).
